According to patent US7652067B2, “Aqueous compositions containing monoester salts” (Millenium Specialty Chemicals, Inc., priority 2006, dated 2010):

How the values were obtained:
[1] = Control experiment: stirring hydrophobic compound with pure water; settings: for control experiment with water: outcome: compound stirred with water without solubilizer
[2] = Solubilization of hydrophobic organic compound in aqueous sodium monomenthyl glutarate (Na-MMG); settings: for concentration of hydrophobic compound in clear, homogeneous solution in aqueous Na-MMG: MMG neutralised with 8.8% aqueous sodium bicarbonate; for times better dissolved in aqueous Na-MMG than in pure water: aqueous Na-MMG vs pure water
Experimental: Aqueous sodium bicarbonate (98 g, 8.8% solution) is added over about 20 minutes to a stirred mixture of monomenthyl glutarate (“MMG,” 25 g) and dodecane (3.0 g). After the addition is complete and CO2 evolution stops, the mixture is stirred for 2 h and is then allowed to settle. The resulting mixture is a clear, homogeneous solution of dodecane (˜2.5%) in aqueous sodium monomenthyl glutarate (Na-MMG).
A clear aqueous solution of Na-MMG is obtained by reacting monomenthyl glutarate (25 g) with aqueous sodium bicarbonate (98 g of 8.8% solution). […] The mixture stirs for about 2 h and is allowed to cool to ambient temperature. […] Dilution with an equal volume of water produces a solution that remains clear for more than 40 days.
Aqueous sodium bicarbonate (196 g, 8.8% solution) is added to a stirred mixture of monomenthyl glutarate (50 g) and N-ethyl-p-menthane-3-carboxamide (“WS-3,” 2.0 g). After the addition is complete and CO2 evolution stops, the mixture is stirred for 1 h and is then allowed to sit overnight. The resulting mixture is a clear, homogeneous solution of WS-3 (˜0.83%) in aqueous Na-MMG.
More WS-3 (1.0 g) is added to the aqueous composition. The mixture stirs for 1 h and is allowed to stand overnight. The mixture is filtered to remove undissolved crystals (0.6 g).
Dilution with an equal volume of water produces a solution that remains clear for more than 40 days.

[3] = Organoleptic test of physiological cooling effect
Source text: The resulting mixture is a clear, homogeneous solution of WS-3 (˜0.83%) in aqueous Na-MMG.

[4] = Dilution of the clear aqueous composition with an equal volume of water (clarity / emulsification); type: physicochemical; settings: clear composition in aqueous Na-MMG diluted 1:1 with water
Experimental: It may be desirable to dilute the aqueous compositions with water. The amount of water that can be added while maintaining a clear aqueous solution depends on many factors known to those skilled in the art, including the nature of the hydrophobic organic compound, the particular monoester salt, the concentration of each of these components, and other factors. In general, the desirability of diluting the aqueous composition is determined empirically.

[5] = Solubilization of hydrophobic organic compound in aqueous sodium monooctyl glutarate (Na-MOG); type: physicochemical; settings: MOG 22.6 g, procedure of Example 1
Source text: The procedure of Example 1 is followed except that monooctyl glutarate (MOG, 22.6 g) and p-cymene (5 g) are used. The resulting mixture is a clear, homogeneous solution of p-cymene (˜4.4%) in aqueous sodium monooctyl glutarate (Na-MOG).

[6] = Solubilization of hydrophobic organic compound in aqueous sodium monomenthyl succinate (Na-MMS); type: physicochemical; settings: MMS 23.7 g, procedure of Example 1
Source text: The procedure of Example 1 is followed except that monomenthyl succinate (MMS, 23.7 g) and p-cymene (3 g) are used. The resulting mixture is a clear, homogeneous solution of p-cymene (˜2.5%) in aqueous sodium monomenthyl succinate (Na-MMS).

Compound	concentration of hydrophobic compound in clear, homogeneous solution in aqueous Na-MMG [2]	control experiment with water: outcome [1]	time solution remains clear after dilution with an equal volume of water [4]	further results
CC(C)=CCCC(C)CCO (stereo not drawn) [citronellol]	~3.6%	fail to produce a homogeneous mixture	more than 40 days	
CC(C)=CCCC(C)CC#N (stereo not drawn) [citronellyl nitrile]	~3.6%	fail to produce a homogeneous mixture		emulsification after dilution with an equal volume of water [4]: immediately produces an emulsion
CCCCCCCCCCCC [dodecane]	~2.5%	fails to produce a homogeneous mixture		undissolved compound recovered after settling ([1]; 12 g stirred with 876 g water for 2 h): 11.6 g; emulsification after dilution with an equal volume of water [4]: emulsifies within two days; times better dissolved in aqueous Na-MMG than in pure water [2]: at least 50 times
C=CC(C)(O)CCC=C(C)C (stereo not drawn) [linalool]		fail to produce a homogeneous mixture		concentration of hydrophobic compound in clear, homogeneous solution in aqueous Na-MOG [5]: ~2.7%
Cc1ccc(C(C)C)cc1 [p-cymene]	~3.6%	fail to produce a homogeneous mixture		emulsification after dilution with an equal volume of water [4]: ≤ 2 days; concentration of hydrophobic compound in clear, homogeneous solution in aqueous Na-MOG [5]: ~4.4%; concentration of hydrophobic compound in clear, homogeneous solution in aqueous Na-MMS [6]: ~2.5%
Cc1c(C)c2c(c(C)c1O)CCC(C)(CCCC(C)CCCC(C)CCCC(C)C)O2 (stereo not drawn) [α-tocopherol]		fail to produce a homogeneous mixture	more than 40 days	concentration of hydrophobic compound in clear, homogeneous solution in aqueous Na-MOG [5]: ~2.6%

Further lines, with some results ahead:

concentration of hydrophobic compound in clear, homogeneous solution in aqueous Na-MMG [2]	control experiment with water: outcome [1]	time solution remains clear after dilution with an equal volume of water [4]	Compound	further results
~0.83%			CCNC(=O)[C@@H]1C[C@H](C)CC[C@H]1C(C)C [WS-3, N-ethyl-p-menthane-3-carboxamide]	solubility in pure water ([1]; 20° C.): ~0.03%; times better dissolved in aqueous Na-MMG than in pure water [2]: about 33 times; concentration of WS-3 in filtrate (aqueous Na-MMG) after removing undissolved crystals ([2]; more WS-3 added, stood overnight, filtered): ~1.0%; cooling effect when tested organoleptically ([3]; filtrate, ~1.0% WS-3 in aqueous Na-MMG): strong cooling effect; cooling effect when tested organoleptically ([3]; ~0.83% WS-3 in aqueous Na-MMG, pH 7.4): strong cooling effect
	fails to produce a homogeneous mixture		C=C(C)[C@H]1CC=C(C)CC1 [d-limonene]	
~3.6%	fail to produce a homogeneous mixture	more than 40 days	C=C(C)[C@@H]1CC=C(C)C(=O)C1 [l-carvone]	
~2.5%	no homogeneous mixture results	more than 40 days	CC(C)[C@@H]1CC[C@@H](C)C[C@H]1O [l-menthol]	menthol content of aqueous solution in pure water control (gas chromatography) ([1]; 12 g in 876 g water, 2 h, initially 47° C. then ambient, filtered): 0.06%; times better dissolved in aqueous Na-MMG than in pure water [2]: at least 40 times; physiological cooling effect (organoleptic test) ([3]; ~2.5% l-menthol solution in aqueous Na-MMG): strong physiological cooling effect
	fail to produce a homogeneous mixture	more than 40 days	CC(C)[C@@H]1CC[C@@H](C)C[C@H]1OC(=O)[C@H](C)O [l-menthyl lactate]	
